Measurements taken from patent US9326993B2, “Treatment of pulmonary and pleural fibrosis using HSP27 inhibitors” (ONCOGENEX TECHNOLOGIES INC., priority 2011, dated 2016).
Residues, ends and D or L forms follow the SMILES beside them. *: point of attachment. e = 2'-O-(2-methoxyethyl) (MOE); Cbz = O=C(OCc1ccccc1)*; d = 2'-deoxy (DNA)

What was measured:
[1] = tested on: AdTGF-β1 induced pleural and subpleural fibrosis model in rats; experiment: AdTGF-β1 induced pleural and subpleural fibrosis model; type: in vivo, rat; conditions: for reduction in the lungs volume compared to AdDL administered animals: RCL2 volume, 10 min at 20 cm H20
Excerpt: For experiments on pleural fibrosis we used AdTGF-β1223/225, an adenovirus construct with a mutant TGF-β1 translated into spontaneously bioactive TGF-β1 (AdTGFβ1) and control vectors (AdDL) with no insert in the deleted E1 region. The construction of adenoviral vectors is described in detail elsewhere (DeCologne, 2007, supra; Bett et al. Proc Natl Acad Sci USA 1994; 91:8802-6; Sime et al., J Clin Invest 1997; 100:768-76)
Female Sprague-Dawley rats (Charles River Laboratories) weighing 200-225 g were housed in special pathogen-free conditions. Rodent laboratory food and water were provided ad libitum. The animals were treated in accordance to the guidelines of the Ministère de la Recherche et de laTechnologie (Paris, France). All experiments were approved by the Comitéd'Ethique de l'Universite´ de Bourgogne (Bourgogne, France). All animal procedures were performed with inhalation anesthesia with isoflurane (TEM, Lormont, France). Adenovector administrations were performed by intrapleural injection in 800 μl of NaCl0.9% containing a total of 1.3×10^9 PFU AdTGF-β1, AdDL or AdLacZ. The intrapleural injection protocol was described in details elsewhere (DeCologne, 2007, supra)).
12 mg/kg of control ASO and OGX-427 were daily administrated by intrapleural injection during 5 days after adenoviral administration. Rats were euthanized by abdominal aortic bleeding and lungs were harvested and processed following what was previously described in Decologne et al (DeCologne, 2007, supra)).
Immunohistochemitry: Inflated lungs were transversally cut and paraffin embedded. 5 μm section were performed and stain with primary antibodies (Ab), Mouse monoclonal anti-α-SMA (Sigma, St Quentin Fallavier, France, 1/200), rabbit polyclonal anti-HSP27 (EnzoLife Science, Villeurbanne, France, 1/200) and rabbit polyclonal cleaved caspase 3 (cell signaling, Saint Quentin, France, 1/100). Secondary Abs used were respectively, a goat anti-mouse IgG biotin conjugated and a goat anti-rabbit IgG biotin conjugated. After peroxidase inhibition (PBS plus H2O2, 20 min), lung section were incubated over night at 4° C. with primary ab. Tissue section were after PBS 1× (Phosphate Buffer Saline) wash incubated with the secondary ab (1/500) 45 min. The streptavidin-HRP complex (Jackson ImmunoResearch Laboratories, PA, USA, 1/500) was used 45 min at room temperature. 3-Amino-9-ethylcarbazole/hydrogen peroxide was used as chromagen substrate. Slides were counterstained with hematoxylin.
Total human TGF-β1 was determined from pleural lavage fluid (PLF) using ELISA (R&D Systems, Lille, France), performed according to the recommendations of the manufacturer. The sensitivity of this assay was 7 pg·mL-1.
To assess the role of HSP27 inhibition in the process of fibrogenesis in vivo, we administered OGX427 or its control ASO in the pleural cavity in our AdTGF-β1 induced pleural and subpleural fibrosis model in rats. The concentrations of ASO control and OGX-427 used were those previously described in studies of bladder cancer where the oligonucleotides were administered intra-vesically. (Matsui et al. Mol Cancer Ther 2009; 8:2402-11)
After AdTGF-β1 or AdDL intrapleural administration, rats were daily treated with the ASO control or OGX427 during […] by intra pleural injection. We first confirmed by an ELISA technique that the content on TGF-β1 after AdTGF-β1 intrapleural administration was similar in the pleural lavage fluid (PLF) from all rats, those treated with OGX427 and those treated with a control ASO (FIG. 4A). […] (FIG. 4B)
To determine lung activity, lung volumes were assessed by measuring the volume of RCL2 (fixation solution) that drained into the lungs after 10 min at a constant pressure of 20 cm H20. Compared to AdDL administered animals, AdTGF-β1 administration in ASO control rats induced a reduction in the lungs volume of 55%. […] This effect for the HSP27 inhibitor was only observed in the TGF-β1-exposed animals. […]

[2] = tested on: Mesothelial rat primary cells; experiment: Spontaneous EMT of primary mesothelial cells over culture passages; type: cell-based
Procedure: For primary cell harvesting, 8 ml of HBSS (Lonza, Paris, France) were injected in the pleural cavity through the diaphragm then removed and followed by a 10 ml trypsin 5%, EDTA 0.4% administration for 30 min. This lavage was removed and placed in 30 ml of DMEM (Dulbecco's Modified Eagle Medium, Lonza) with 15% FBS (Fetal Bovine Serum, Lonza). After centrifugation (1300 rpm, 5 minutes), the cell pellet was re-suspended into 5 ml DMEM, FBS 15% and placed at 37° C., 5% CO2.
Mesothelial rat primary cells were grown in Dulbecco's Modified Eagle's Medium (DMEM) 1% L-glutamine, 1% penicillin-streptomycin with 15% Fetal Bovine Serum (FBS. Lonza, Paris, France). Cells were assessed before culture and from passage 1 to 4.
(§1) Protein extraction was made using triton X 100 during 30 min at 4° C., vortexing every 10 min. Protein dosage is made with the modified lowry kit (Biorad, Marne-la-Coquette, France). Equal amounts of protein (30-50 μg) were electrophoresed through 8 to 12% SDS polyacrylamide gels. The separate protein bands were transferred onto a PVDF membrane. The non-specific sites were saturated with a solution of PBS-tween 0.1%, nonfat milk 8%. Membranes were incubated with primary Abs over night at 4° C. Secondary Abs IgG linked to HRP (HorseRadish Peroxidase, Jackson ImmunoResearch Laboratories, PA, USA) were used at a concentration of 1/5000. Enhanced ChemiLuminescent substrat (ECL, santa cruz biotechnology, CA, USA) was used to detect the protein of interest. […]

[3] = tested on: human mesothelial Met-5A cells; experiment: Induction of HSP27 overexpression in Met-5A cells; type: cell-based
Excerpt: To study the involvement of HSP27 in the EMT process, we induced the overexpression of HSP27 in the human mesothelial Met-5A cells by three different methods: heat shock, staurosporine treatment, and transfection with a plasmid encoding HSP27. […] (Brunet Simioni et al., Oncogene 2009; 28:3332-44) A more specific overexpression was obtained by HSP27 cDNA transfection. […] Conversely, siRNA-meditated depletion of HSP27 inhibits rTGF-β1 induced α-SMA in human […] Met-5A cells and epithelial A549 cells. This decrease in α-SMA content induced by HSP27 depletion seems to be, at least in part, the result of its proteasomal degradation because in the presence of an inhibitor of the proteasome, such as MG132, α-SMA levels were restored

[4] = tested on: HSP27; conditions: cited from earlier work
[5] = tested on: human mesothelial Met-5A cells; experiment: rTGF-β1-induced EMT in Met-5A cells (western blot, RT-PCR); type: cell-based; conditions: HSP27 siRNA-depleted cells plus proteasome inhibitor
Procedure: Mesothelial rat established cell line 4/4 RM4 cells (American Type Culture Collection—ATCC—Rockville, Md.) were seeded in Ham's F10 (Lonza), with FBS 15%. Mesothelial human established cell line MET-5A (ATCC) were seeded in Medium 199 (lonza), 1% L-glutamine, 1% penicillin-streptomycin with 10% FBS. Epithelial human cell line A549 cells (ATCC) and were seeded in Ham's F10 (lonza) with 10% FBS.
For EMT induction and analysis, all the different cells were exposed to their respective medium containing 10 ng/ml recombinant (r)TGF-β1 (R&D system, Lille, France) for 6, 12, 24, or 48 hours.
HSP27 siRNA were purchased from applied bios system (Courtaboeuf, France). The sense and antisense sequence were respectively: 5′-GUUCAAAGCAACCACCUGUtt-3 (SEQ ID No: 4)′ and 5′-ACAGGUGGUUGCUUUGAACtt-3′. (SEQ ID No: 5). They were used at a concentration of 50 nM. SiRNA were transfected using INTERFERin (polyplus, Illkirch, France) following the manufacturer recommendations. 5-6 hours after transfection medium were changed and cells were treated or not with 10 ng/ml TGF-β1 for 12, 24 or 48 hours. Seq ID No. 3 was used as a random control oligonucleotide.
as §1
Total RNA was extracted using TRIzol (Invitrogen, Cergy Pontoise, France) from MET-5A and A549 cells treated or not with rTGF-β1 12 or 24 hours and transfected or not by HSP27 siRNA or plasmid encoding HSP27. […] Quantitative RT-PCR was performed on the cDNA using the SYBR green master mix (promega, Charbonnieres, France). […]

Compound: OGX-427: 4-12-4 2′-MOE gapmer antisense oligonucleotide with phosphorothiolated linkages targeting HSP27, made by OncoGenex (Seq. ID No. 2) (antisense GGGACGCGGCGCTCGGTCAT; sugars from the 5' end e4 d12 e4, all C 5-methyl, all phosphorothioate, T or U not given here; listed as Homo sapiens)
- lung volumes in AdDL-administered animals, ASO control vs OGX 427 ([1]; AdDL rats (no TGF-β1)): no difference
- mesothelial cell migration within the subpleural parenchyma ([1]; AdTGF-β1 + AdLacZ rats): no mesothelial cell migration
- morphology of the mesothelial cells ([1]; AdTGF-β1 + AdLacZ rats): did not change
- pleural fibrosis (histological evaluation) ([1]; AdTGF-β1 rats): minor pleural fibrosis
- HSP27 expression in lungs ([1]; AdTGF-β1 rats, histology): very significant decrease
- α-SMA expression in lungs ([1]; AdTGF-β1 rats, histology): very significant decrease
- pleural collagen quantified from microscopic images ([1]; AdTGF-β1 rats, vs control antisense): substantial reduction
- reduction in the lungs volume compared to AdDL administered animals ([1]; AdTGF-β1 rats): 35%
- HSP27 expression in PLF (western blot) ([1]; AdTGF-β1 rats, intra-pleural administration): strongly blocked
- TGF-β1 content in pleural lavage fluid (ELISA) ([1]; after AdTGF-β1 intrapleural, 12 mg/kg daily intrapleural, vs control ASO): similar
- amount of fibrosis in the pulmonary parenchyma ([1]; collagen in parenchymal subpleural areas): reduces the amount of fibrosis
- increased expression of HSP27 with cell passages ([2]; vs ASO control): blocked
- increased expression of α-SMA with cell passages ([2]; vs ASO control): blocked
- cell shape (mesothelial phenotype) ([2]; vs control ASO): kept their mesothelial phenotypic shape

Compound: CN[C@@H]1C[C@H]2O[C@@](C)([C@@H]1OC)n1c3ccccc3c3c4c(c5c6ccccc6n2c5c31)C(=O)NC4 [staurosporine]
- HSP27 induction [3]: efficient inducers of HSP27
- α-SMA expression/content ([3]; after HSP27 overexpression): increase

Compound: ASO control: control oligonucleotide having the sequence CCTTCCCTGAAGGTTCCTCC, also known as ISIS 141923 (listed as DNA, chemistry not given here)
- reduction in the lungs volume compared to AdDL administered animals ([1]; AdTGF-β1 rats): 55%

Compound: interferon-γ: cytokine shown to downregulate expression of HSP27
- HSP27 expression/levels [4]: downregulate expression of HSP27

Compound: CC(=O)O[C@H]1C(=O)[C@@]2(C)[C@H]([C@H](OC(=O)c3ccccc3)[C@]3(O)C[C@H](OC(=O)[C@H](O)[C@@H](NC(=O)c4ccccc4)c4ccccc4)C(C)=C1C3(C)C)[C@]1(OC(C)=O)CO[C@@H]1C[C@@H]2O [Paclitaxel]
- HSP27 expression/levels [4]: inhibitor of hsp27 expression

Compound: CC(C)C[C@@H](C=O)NC(=O)[C@H](CC(C)C)NC(=O)[C@H](CC(C)C)NC(=O)OCc1ccccc1 [MG132] (Cbz-Leu-Leu-Leu-aldehyde)
- α-SMA levels after HSP27 depletion [5]: restored
